Data on 79 molecules can be found in a melting point compilation (Tetko et al.).

Broadly, the melting point is the temperature of the solid-liquid transition.

On to `O=C(/C=C/OC(=O)c1ccccc1)CCc1ccccc1`, for which the melting point is 99 to 100 °C.

Turning to `O=Cc1ccc(-c2cccc([N+](=O)[O-])c2)o1`, the melting point is 156 to 158 °C.

With `NC(=S)Nc1ccc(F)cc1F`, the melting point fell in the range of 163 to 168 °C.

`COc1ccc(C(=O)/C(=N\Nc2cc(Cl)ccc2Cl)S(=O)(=O)c2ccccc2)cc1` returned a melting point of 115 °C.

Molecule `CNC(=O)Oc1ccc2c(c1)C1(C)CCOC1N2C` (centres undefined) displayed a melting point of 124 °C.

With `FC(Cl)(Cl)CCl`, the melting point is -140 °C.

As to `CC(=O)N(C)C(C)=O`, the melting point is -25 °C.

The molecule `Cc1c(C)c(C)c2c(c1C)C(=O)CC2C(=O)O` (centres undefined) yielded a melting point of 214 °C.

Take `O=C(O)c1ccc(-c2ccc([N+](=O)[O-])cc2)o1`: the melting point fell in the range of 255 to 257 °C.

`CCCCCC(c1ccccc1)c1ccccc1`: the melting point is -12 °C.

`Cc1cccc2[nH]ccc12` showed a melting point of 5 °C.

`CN(C)C(=O)OC1=CC(=O)CC(C)(C)C1` displayed a melting point of 45.5 °C.

`CC1(c2ccccc2)CC(C(=NOC(=O)Cc2ccccc2)c2cc3ccccc3o2)C1` (centres undefined) returned a melting point of 144 to 145 °C.

`CN(C)c1ccc(-c2ccc(N(C)C)cc2)cc1`: the melting point turned out to be 194 °C.

Molecule `c1ccc2cc(Nc3ccc(Nc4ccc5ccccc5c4)cc3)ccc2c1` came in with a melting point of 235 °C.

The molecule `COC1C(C2COC3(CCCCC3)O2)OC2OC3(CCCCC3)OC21` (centres undefined) came in with a melting point of 35 to 38 °C.

On to `N#Cc1ccc(C(Cl)C(Cl)c2ccc(C(Cl)C(Cl)c3ccc(C#N)cc3[N+](=O)[O-])cc2)c([N+](=O)[O-])c1` (centres undefined), for which the melting point is 278 °C.

`O=C(O)c1csc(N2CCOCC2)n1` yielded a melting point of 175 to 177 °C.

As to `CCc1ccccc1O`, the melting point came out at 18 °C.

With `C=C=CC`, the melting point was -136 °C.

Molecule `Cc1cc(C(F)(F)F)c(C#N)c(=S)[nH]1` displayed a melting point of 200 °C.

The molecule `Cc1ccccc1NC=C1C(=O)NN=C1c1c(O)c2ccccc2n(C)c1=O` showed a melting point of 288 °C.

Consider `Cc1csc2sc(C=O)c(C)c12`, for which the melting point fell in the range of 147 to 149 °C.

For `NC(=S)NCCCc1ccccc1`, the melting point stood at 111 °C.

Regarding `Cc1c(Cl)cc(F)cc1S(N)(=O)=O`, the melting point lay within 118 to 120 °C.

Regarding `CC(C)(C)N(NC(=O)c1ccccc1)C(=O)c1cc(Cl)ccc1Cl`, the melting point was 214 °C.

`C=Cc1ccccc1-c1cn[nH]c1` came in with a melting point of 114 °C.

In the case of `N#Cc1ccc(Cn2cncn2)cc1`, the melting point fell in the range of 69 to 72 °C.

In turn, `CCC1Nc2cc(Cl)c(S(N)(=O)=O)cc2S(=O)(=O)N1` (centres undefined) had a melting point of 270 °C.

On to `CC[Si](Cl)(Cl)Cl`, for which the melting point is -106 °C.

As to `Cc1ccc(C)c(C)n1`, the melting point worked out at 37 °C.

For the molecule `O=P(OC(CCl)CCl)(OC(CCl)CCl)OC(CCl)CCl`, the melting point is 27 °C.

`COc1cc(C(C)=O)cc(OC)c1O` displayed a melting point of 123 to 128 °C.

`Cc1ccc2sc(C(=O)Cl)cc2c1`: the melting point was in the range of 58 to 60 °C.

`CCOC(=O)NC(=S)Nc1sc2c(c1C(=O)OCC)CCN(Cc1ccccc1)C2` gave a melting point of 206 °C.

On to `CCOC(=O)C1=C(COCCN)NC(C)=C(C(=O)OC)C1c1ccccc1Cl` (centres undefined), for which the melting point was 178 °C.

For `CC(C)(C#N)Nc1nc(Cl)nc(NC2CC2)n1`, the melting point came to 170 °C.

As to `Cc1ccc(N)cc1[N+](=O)[O-]`, the melting point came to 76.5 °C.

`COc1cccc(CC(C)=O)c1` came in with a melting point of 258 to 260 °C.

`O=[N+]([O-])c1cnc2ccccc2c1O`: the melting point is > 345 °C.

Regarding `O=Cc1ccccc1OCc1ccccc1`, the melting point worked out at 47 °C.

`O=C(CCc1ccc(O)cc1)c1c(O)cc(O)cc1OC1OC(CO)C(O)C(O)C1O` (centres undefined): the melting point was 110 °C.

The molecule `O=C1c2ccccc2C(=O)c2c1cccc2[N+](=O)[O-]` registered a melting point of 232 °C.

In the case of `CC(C)(C)N(NC(=O)c1ccccc1)C(=O)c1cccc(C#N)c1`, the melting point was 174 °C.

`CC(=O)OC(=CC=C(OC(C)=O)c1ccccc1)c1ccccc1` displayed a melting point of 174 to 176 °C.

For `CC(=O)c1ccc(OCc2ccc(F)cc2)cc1`, the melting point was 79 to 80 °C.

`O=Cc1cccc(C(F)(F)F)c1Cl` showed a melting point of 44 °C.

Consider `CCCOC(=O)CCC(=O)OCCC`, for which the melting point is -5.9 °C.

On to `ON=C(Cc1ccccc1)C(Cc1ccccc1)=NO`, for which the melting point is 193 °C.

For `CN1C(CSCC(F)(F)F)Nc2cc(Cl)c(S(N)(=O)=O)cc2S1(=O)=O` (centres undefined), the melting point was determined as 214 °C.

Molecule `O=C(c1ccccc1)c1cccnc1` registered a melting point of 38 °C.

Molecule `Sc1ncnc2c1cnn2-c1ccccc1` showed a melting point of 286 to 288 °C.

The molecule `Fc1cccc(P(c2cccc(F)c2)c2cccc(F)c2)c1` returned a melting point of 61.5 °C.

As for `OCCN(CCO)C(CO)(CO)CO`, the melting point is 104 °C.

`COc1ccc(-n2ncc(C=O)c2C)cc1` returned a melting point of 80 to 82 °C.

The molecule `CC(=O)c1cc(F)cc(Cl)c1` had a melting point of 53 °C.

The molecule `NS(=O)(=O)c1c(Cl)nc2sccn12` yielded a melting point of 176 to 177 °C.

For the molecule `CC(C(C)P(c1ccccc1)c1ccccc1)P(c1ccccc1)c1ccccc1` (centres undefined), the melting point lay in the range of 104 to 109 °C.

Turning to `C=CCOCC=C`, the melting point was -6 °C.

Regarding `OCc1csc2ccccc12`, the melting point was in the range of 49 to 50 °C.

`O=[N+]([O-])c1cc(C2CCCCC2)c(O)c([N+](=O)[O-])c1`: the melting point came to 107 °C.

`Nc1ncccc1Cl` displayed a melting point of 61 °C.

With `CC(CCC(=O)O)C1CCC2C3C(O)CC4CC5(CCC4(C)C3CC(=O)C12C)OCCO5` (centres undefined), the melting point is 219 °C.

`N#CCc1ccc(Cc2ccccc2)cc1` gave a melting point of 35.5 °C.

For `O=C(O)CS`, the melting point was -11 °C.

On to `O=C(Nc1nccs1)C(C(F)(F)F)C(F)(F)F`, for which the melting point came out at 148 °C.

Molecule `NCc1ccc(OC2CCOCC2)cc1` showed a melting point of 41.5 to 43.5 °C.

As to `c1ccc(Cc2ccccc2)cc1`, the melting point came to 25.2 °C.

For the molecule `COC(=O)CCC(C)C1CCC2C3C(OC(C)=O)C(Br)C4CCCCC4(C)C3CCC12C` (centres undefined), the melting point was 158 to 159 °C.

On to `O=Cc1cccc(-c2ccc(C(=O)O)cc2)c1`, for which the melting point lay within 231 to 233 °C.

`Nc1cccc(-c2ncccn2)c1` yielded a melting point of 99.5 to 102 °C.

On to `COCCOCCOCCO`, for which the melting point was -44 °C.

In the case of `O=Cc1cccc([N+](=O)[O-])c1O`, the melting point amounted to 110 °C.

`Cc1cccc2c(C=O)c[nH]c12` yielded a melting point of 210 °C.

As to `O=C(O)c1cc(=O)[nH]c(=O)[nH]1`, the melting point turned out to be 345 °C.

In turn, `NNC(N)=S` showed a melting point of 183 °C.

In turn, `O=C(O)c1cc2cc(Cl)cc(Br)c2oc1=O` had a melting point of 206 to 208 °C.

On to `ON=Cc1ccc(OC(F)(F)F)cc1`, for which the melting point came out at 41 °C.

Consider `COc1cc(C(=O)c2ccccc2Cl)c([N+](=O)[O-])cc1OC`, for which the melting point amounted to 122 °C.
